# Experimental data as given in US11547697B2, “Heterocyclic compounds and uses thereof” (MILLENNIUM PHARMACEUTICALS, INC., priority 2009, dated 2023).
# Like-named read-outs stand apart in the source and are kept apart here.
# Assays:
# p110δ/p85α = p110δ/p85α (Homo sapiens (Human), UniProt O00329); assay: PI 3-Kinase (human) HTRF assay, p110δ/p85α; type: biochemical
# [1] = tested on: tumor cells with a PI3Kα mutation (e.g., MDA-MB-361 and T47D); assay: Proliferation of tumor cells with PI3Kα mutation; type: cell-based; conditions: Homo sapiens, T47D cells
# p110γ = p110γ (Homo sapiens (Human), UniProt P48736); assay: PI 3-Kinase (human) HTRF assay, p110γ; type: biochemical
# p110β/p85α = p110β/p85α (Homo sapiens (Human), UniProt P42338); assay: PI 3-Kinase (human) HTRF assay, p110β/p85α; type: biochemical
# recombinant mTOR = recombinant mTOR (Homo sapiens (Human), UniProt P42345); assay: mTOR inhibition assay (radiometric or LanthaScreen TR-FRET); type: biochemical
# Method: The compounds described herein can be tested against recombinant mTOR (Invitrogen) in an assay containing 50 mM HEPES, pH 7.5, 1 mM EGTA, 10 mM MgCl2, 2.5 mM, 0.01% Tween, 10 pM ATP (2.5 μCi of μ-32P-ATP), and 3 μg/mL BSA. R^at recombinant PHAS-1/4EBP1 (Calbiochem; 2 mg/mL) is used as a substrate. Reactions are terminated by spotting onto nitrocellulose, which is washed with 1M NaCl/1% phosphoric acid (approximately 6 times, 5-10 minutes each). Sheets are dried and the transferred radioactivity quantitated by phosphorimaging.
# For instance, one can use Invitrogen's LanthaScreen™ Kinase assay to test the inhibitors of mTOR disclosed herein. This assay is a time resolved FRET platform that measures the phosphorylation of GFP labeled 4EBP1 by mTOR kinase. The kinase reaction is performed in a white 384 well microtitre plate. The total reaction volume is 20 ul per well and the reaction buffer composition is 50 mM HEPES pH7.5, 0.01% Polysorbate 20, 1 mM EGTA, 10 mM MnCl2, and 2 mM DTT. In the first step, each well receives 2 ul of test compound in 20% dimethylsulphoxide resulting in a 2% DMSO final concentration. Next, 8 ul of mTOR diluted in reaction buffer is added per well for a 60 ng/ml final concentration. To start the reaction, 10 ul of an ATP/GFP-4EBP1 mixture (diluted in reaction buffer) is added per well for a final concentration of 10 μM ATP and 0.5 μM GFP-4EBP1. The plate is sealed and incubated for 1 hour at room temperature. […] The plate is sealed, incubated for 1 hour at room temperature, and then read on a plate reader set up for LanthaScreen™ TR-FRET. Data is analyzed and IC50s are generated using GraphPad Prism 5.
# p110α/p85α = p110α/p85α (Homo sapiens (Human), UniProt P42336); assay: PI 3-Kinase (human) HTRF assay, p110α/p85α; type: biochemical
# Method: An exemplary system is PI 3-Kinase (human) HTRF™ Assay from Upstate. […] Briefly, the assay is a time resolved FRET assay that indirectly measures PIP3 product formed by the activity of a PI3-K. The kinase reaction is performed in a microtitre plate (e.g., a 384 well microtitre plate). The total reaction volume is approximately 20 ul per well. In the first step, each well receives 2 ul of test compound in 20% dimethylsulphoxide resulting in a 2% DMSO final concentration. Next, approximately 14.5 ul of a kinase/PIP2 mixture (diluted in 1× reaction buffer) is added per well for a final concentration of 0.25-0.3 ug/ml kinase and 10 μM PIP2. The plate is sealed and incubated for 15 minutes at room temperature. To start the reaction, 3.5 ul of ATP (diluted in 1× reaction buffer) is added per well for a final concentration of 10 μM ATP. The plate is sealed and incubated for 1 hour at room temperature. The reaction is stopped by adding 5 ul of Stop Solution per well and then 5 ul of Detection Mix is added per well. The plate is sealed, incubated for 1 hour at room temperature, and then read on an appropriate plate reader. Data is analyzed and IC50s are generated using GraphPad Prism 5. […] For PI3K α, β, δ, and γ, the nM concentration of inhibitor to reach IC50 is provided.
# [2] = in vitro, read-out: PI3K δ IC50
# [3] = read-out: T47D proliferation IC50
# [4] = in vitro, read-out: PI3K γ IC50
# [5] = in vitro, read-out: PI3K β IC50
# [6] = in vitro, read-out: PI3K α IC50
# Sequence of p110β/p85α (P42338 whole entry): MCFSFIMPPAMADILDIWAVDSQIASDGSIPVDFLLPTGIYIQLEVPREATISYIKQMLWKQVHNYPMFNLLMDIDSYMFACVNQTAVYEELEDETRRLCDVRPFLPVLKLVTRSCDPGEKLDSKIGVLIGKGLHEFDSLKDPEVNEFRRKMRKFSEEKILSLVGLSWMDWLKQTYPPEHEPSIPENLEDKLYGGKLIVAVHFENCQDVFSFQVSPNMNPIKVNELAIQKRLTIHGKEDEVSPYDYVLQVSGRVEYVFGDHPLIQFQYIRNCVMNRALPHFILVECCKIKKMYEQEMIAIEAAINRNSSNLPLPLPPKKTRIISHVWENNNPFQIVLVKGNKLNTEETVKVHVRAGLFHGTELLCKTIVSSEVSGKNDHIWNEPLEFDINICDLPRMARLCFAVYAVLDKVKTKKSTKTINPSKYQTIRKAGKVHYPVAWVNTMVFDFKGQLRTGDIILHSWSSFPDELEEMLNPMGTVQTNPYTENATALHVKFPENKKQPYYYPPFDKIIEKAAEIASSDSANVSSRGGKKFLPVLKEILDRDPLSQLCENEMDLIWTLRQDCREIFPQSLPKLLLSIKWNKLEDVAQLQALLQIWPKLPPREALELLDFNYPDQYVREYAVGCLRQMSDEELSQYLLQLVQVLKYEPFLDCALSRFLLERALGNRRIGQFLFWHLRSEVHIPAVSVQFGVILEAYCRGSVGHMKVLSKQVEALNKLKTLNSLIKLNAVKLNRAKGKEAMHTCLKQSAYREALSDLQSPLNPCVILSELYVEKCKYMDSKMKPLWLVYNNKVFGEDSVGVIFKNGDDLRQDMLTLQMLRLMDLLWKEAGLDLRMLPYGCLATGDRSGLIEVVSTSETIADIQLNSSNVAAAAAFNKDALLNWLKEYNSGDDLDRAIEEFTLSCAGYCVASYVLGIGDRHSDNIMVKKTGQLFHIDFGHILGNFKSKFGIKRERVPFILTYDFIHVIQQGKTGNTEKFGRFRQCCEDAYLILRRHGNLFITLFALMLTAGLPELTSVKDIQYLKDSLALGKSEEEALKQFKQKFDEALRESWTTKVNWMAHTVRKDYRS
# Sequence of p110β/p85α (P27986 whole entry partner): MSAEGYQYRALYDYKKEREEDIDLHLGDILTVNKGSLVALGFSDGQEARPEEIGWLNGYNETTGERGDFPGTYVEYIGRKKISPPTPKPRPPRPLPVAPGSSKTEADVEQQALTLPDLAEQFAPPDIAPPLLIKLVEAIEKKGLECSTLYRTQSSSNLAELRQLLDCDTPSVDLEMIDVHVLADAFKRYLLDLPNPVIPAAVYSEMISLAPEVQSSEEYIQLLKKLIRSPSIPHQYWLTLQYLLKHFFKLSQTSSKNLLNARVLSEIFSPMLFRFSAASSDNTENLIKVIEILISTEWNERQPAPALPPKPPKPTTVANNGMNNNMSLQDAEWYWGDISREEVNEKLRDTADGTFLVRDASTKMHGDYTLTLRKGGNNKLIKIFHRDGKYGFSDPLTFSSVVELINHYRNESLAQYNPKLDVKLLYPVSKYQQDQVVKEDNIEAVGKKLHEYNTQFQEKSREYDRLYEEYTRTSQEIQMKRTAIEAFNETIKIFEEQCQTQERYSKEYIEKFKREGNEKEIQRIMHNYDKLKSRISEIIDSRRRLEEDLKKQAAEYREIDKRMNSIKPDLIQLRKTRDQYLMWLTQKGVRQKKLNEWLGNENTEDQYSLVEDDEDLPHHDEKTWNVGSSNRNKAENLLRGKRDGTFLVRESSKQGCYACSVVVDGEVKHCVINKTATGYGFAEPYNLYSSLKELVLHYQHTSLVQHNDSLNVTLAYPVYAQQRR
# Sequence of recombinant mTOR (P42345 1360-2549): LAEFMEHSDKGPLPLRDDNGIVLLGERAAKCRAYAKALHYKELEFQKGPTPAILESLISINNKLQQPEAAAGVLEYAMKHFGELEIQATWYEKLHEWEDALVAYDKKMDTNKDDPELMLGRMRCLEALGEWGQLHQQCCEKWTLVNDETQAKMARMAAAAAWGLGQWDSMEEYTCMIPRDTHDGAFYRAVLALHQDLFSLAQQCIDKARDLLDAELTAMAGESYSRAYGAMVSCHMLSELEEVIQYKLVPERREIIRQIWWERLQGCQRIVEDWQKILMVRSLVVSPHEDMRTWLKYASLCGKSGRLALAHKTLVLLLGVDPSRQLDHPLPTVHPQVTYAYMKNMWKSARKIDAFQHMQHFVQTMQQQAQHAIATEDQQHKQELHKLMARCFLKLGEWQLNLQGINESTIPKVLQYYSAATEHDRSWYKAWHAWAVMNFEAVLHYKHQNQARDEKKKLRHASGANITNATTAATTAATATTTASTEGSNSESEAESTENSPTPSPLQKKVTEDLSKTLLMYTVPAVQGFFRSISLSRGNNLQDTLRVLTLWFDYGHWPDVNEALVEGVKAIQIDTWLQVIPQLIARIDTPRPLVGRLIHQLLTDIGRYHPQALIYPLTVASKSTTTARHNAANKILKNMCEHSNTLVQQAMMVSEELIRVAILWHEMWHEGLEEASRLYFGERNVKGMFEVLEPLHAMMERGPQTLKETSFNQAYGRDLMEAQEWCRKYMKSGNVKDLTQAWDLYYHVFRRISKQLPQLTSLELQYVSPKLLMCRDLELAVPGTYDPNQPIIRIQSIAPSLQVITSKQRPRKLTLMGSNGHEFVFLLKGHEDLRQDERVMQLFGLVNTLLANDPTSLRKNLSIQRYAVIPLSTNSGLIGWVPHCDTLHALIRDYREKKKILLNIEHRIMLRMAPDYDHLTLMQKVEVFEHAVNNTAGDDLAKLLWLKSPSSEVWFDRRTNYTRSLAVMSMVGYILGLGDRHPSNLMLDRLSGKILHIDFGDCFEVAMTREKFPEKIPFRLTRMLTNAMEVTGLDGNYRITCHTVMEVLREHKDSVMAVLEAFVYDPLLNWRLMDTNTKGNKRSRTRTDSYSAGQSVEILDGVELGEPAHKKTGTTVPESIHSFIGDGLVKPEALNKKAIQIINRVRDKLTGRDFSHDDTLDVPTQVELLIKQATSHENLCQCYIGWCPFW
# Sequence of p110α/p85α (P42336 whole entry): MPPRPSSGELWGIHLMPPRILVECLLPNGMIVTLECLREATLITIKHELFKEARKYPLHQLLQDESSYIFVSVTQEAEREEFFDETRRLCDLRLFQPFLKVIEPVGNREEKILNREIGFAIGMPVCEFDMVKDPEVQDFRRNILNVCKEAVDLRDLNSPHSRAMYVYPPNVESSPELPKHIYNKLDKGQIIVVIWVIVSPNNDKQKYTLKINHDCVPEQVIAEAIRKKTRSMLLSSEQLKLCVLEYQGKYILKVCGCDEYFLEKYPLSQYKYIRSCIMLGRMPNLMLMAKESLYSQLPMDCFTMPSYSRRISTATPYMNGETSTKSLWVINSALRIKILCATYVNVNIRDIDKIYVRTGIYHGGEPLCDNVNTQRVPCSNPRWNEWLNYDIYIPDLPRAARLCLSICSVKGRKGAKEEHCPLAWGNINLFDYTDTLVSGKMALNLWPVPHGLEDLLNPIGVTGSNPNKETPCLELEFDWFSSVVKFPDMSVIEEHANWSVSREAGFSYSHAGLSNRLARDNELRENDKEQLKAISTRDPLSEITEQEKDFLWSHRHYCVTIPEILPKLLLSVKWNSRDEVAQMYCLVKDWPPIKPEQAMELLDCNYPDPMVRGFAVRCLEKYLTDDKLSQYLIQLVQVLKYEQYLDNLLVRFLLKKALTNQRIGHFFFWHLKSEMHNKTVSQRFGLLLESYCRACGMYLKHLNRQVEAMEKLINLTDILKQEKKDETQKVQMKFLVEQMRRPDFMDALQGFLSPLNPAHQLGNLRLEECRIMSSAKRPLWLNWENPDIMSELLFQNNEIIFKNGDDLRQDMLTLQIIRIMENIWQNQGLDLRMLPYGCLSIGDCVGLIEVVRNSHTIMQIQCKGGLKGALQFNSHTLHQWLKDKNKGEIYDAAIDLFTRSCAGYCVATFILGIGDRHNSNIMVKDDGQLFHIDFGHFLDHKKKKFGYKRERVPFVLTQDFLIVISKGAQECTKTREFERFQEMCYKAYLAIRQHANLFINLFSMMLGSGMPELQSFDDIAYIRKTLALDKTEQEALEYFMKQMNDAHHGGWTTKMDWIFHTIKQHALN
# Sequence of p110α/p85α (P27986 whole entry partner): as the sequence (P27986 whole entry partner) above
SMILES,IC50 ([1]; read-out: T47D proliferation) [µM],IC50 (p110γ; read-out: PI3K γ IC50) [nM],IC50 (recombinant mTOR; read-out: MTORC IC50) [µM],IC50 (p110α/p85α; read-out: PI3K α IC50) [nM],IC50 (p110δ/p85α; [2]) [nM],"IC50 [1, 3] [µM]",IC50 (p110γ; [4]) [nM],IC50 (p110β/p85α; [5]) [nM],"IC50 (recombinant mTOR; in vitro, read-out: MTORC IC50) [µM]",IC50 (p110α/p85α; [6]) [nM],further results
Nc1nc2cc(-c3ccc4ncnc(OC5CCOCC5)c4c3)ccc2o1 [compound 47],< 1,< 1000,< 0.1,< 100,,,,,,,IC50 (p110δ/p85α; read-out: PI3K δ IC50): < 1000 nM; IC50 (p110β/p85α; read-out: PI3K β IC50): < 1000 nM
Nc1nc2cc(-c3ccc4ncc(OC5CCOCC5)nc4c3)ccc2o1 [compound 49],< 10,< 1000,< 10,< 100,,,,,,,IC50 (p110δ/p85α; read-out: PI3K δ IC50): < 10000 nM
CC(C)N1CCC(n2cnc3ccc(-c4ccc5oc(N)nc5c4)cc3c2=O)CC1 [compound 74],< 10,< 10000,< 10,< 100,,,,,,,IC50 (p110β/p85α; read-out: PI3K β IC50): < 10000 nM
Nc1nc2cc(-c3ccc4ncc(-c5cccnc5)nc4c3)ccc2o1 [compound 76],< 10,< 1000,< 10,< 100,,,,,,,
Nc1nc2cc(-c3ccc4ncc(N5CCN(C(=O)[C@@H](N)CO)CC5)nc4c3)ccc2o1 [compound 298],,,,,< 10000,< 10,< 10000,< 1000,< 10,< 100,
CN1CCN(c2cnc3ccc(-c4ccc5oc(N)nc5c4)cc3n2)CC1=O [compound 277],,,,,< 10000,< 1,< 1000,< 1000,< 10,< 100,
CN1CCC(Nc2ncnc3ccc(-c4ccc5oc(N)nc5c4)cc23)CC1 [compound 35],< 10,< 100,< 10,< 100,,,,,,,IC50 (p110δ/p85α; read-out: PI3K δ IC50): < 100 nM
CN1CCN(C2CN(C(=O)c3cnc4ccc(-c5ccc6oc(N)nc6c5)cn34)C2)CC1 [compound 303],,,,,< 10000,< 1,,,< 10,< 100,
CC(C)[C@@H](N)C(=O)N1CCN(c2cnc3ccc(-c4ccc5oc(N)nc5c4)cc3n2)CC1 [compound 270],,,,,< 1000,< 1,< 1000,< 1000,< 10,< 100,
Nc1nc2cc(-c3ccc4ncc(N5CC(C(=O)N6CCOCC6)C5)nc4c3)ccc2o1 [compound 169],< 1,< 1000,< 10,< 100,,,,,,,IC50 (p110δ/p85α; read-out: PI3K δ IC50): < 1000 nM; IC50 (p110β/p85α; read-out: PI3K β IC50): < 1000 nM
O=C(c1cnc2ccc(-c3cnc(Cl)c(NS(=O)(=O)c4ccc(F)cc4F)c3)cn12)N1CCOCC1 [compound 419],,,,,,,,,,,IC50 (p110δ/p85α; read-out: PI3K δ In Vitro IC50): < 100 nM; IC50 (p110γ; read-out: PI3K γ In Vitro IC50): < 100 nM; IC50 (p110β/p85α; read-out: PI3K β In Vitro IC50): < 100 nM; IC50 (recombinant mTOR; read-out: MTORC In Vitro IC50): < 1 µM; IC50 (p110α/p85α; read-out: PI3K α In Vitro IC50): < 100 nM
C[C@@H]1CN(C(=O)C2CN(c3cnc4ccc(-c5ccc6oc(N)nc6c5)cc4n3)C2)CCN1 [compound 267],,,,,< 1000,< 1,< 1000,< 10000,< 10,< 100,
Nc1nc2cc(-c3ccc4ncc(N5CCC(n6ccnc6)CC5)nc4c3)ccc2o1 [compound 345],,,,,< 1000,,< 1000,< 1000,< 10,< 100,
Nc1nc2cc(-c3ccc4ncc(N5CC[C@H](O)C5)nc4c3)ccc2o1 [compound 262],,,,,,< 10,< 1000,< 1000,< 10,< 100,
Nc1nc2cc(-c3ccc4ncc(N5CC(C(=O)N6CCN(C7CC7)CC6)C5)nc4c3)ccc2o1 [compound 276],,,,,< 1000,< 1,< 1000,< 10000,< 10,< 100,
Nc1nc2cc(-c3ccc4ncc(N5CC(N6CC[C@@H](O)C6)C5)nc4c3)ccc2o1 [compound 315],,,,,< 10000,,< 10000,< 10000,< 1,< 100,

SMILES,IC50 ([1]; read-out: T47D proliferation) [µM],IC50 (p110γ; read-out: PI3K γ IC50) [nM],IC50 (recombinant mTOR; read-out: MTORC IC50) [µM],IC50 (p110α/p85α; read-out: PI3K α IC50) [nM],IC50 (p110δ/p85α; [2]) [nM],"IC50 [1, 3] [µM]",IC50 (p110γ; [4]) [nM],IC50 (p110β/p85α; [5]) [nM],"IC50 (recombinant mTOR; in vitro, read-out: MTORC IC50) [µM]",IC50 (p110α/p85α; [6]) [nM],further results
CC(=O)N1CCC(Nc2ncnc3ccc(-c4ccc5oc(N)nc5c4)cc23)CC1 [compound 60],,< 100,< 1,< 100,,,,,,,IC50 (p110δ/p85α; read-out: PI3K δ IC50): < 1000 nM; IC50 (p110β/p85α; read-out: PI3K β IC50): < 10000 nM
Cc1nc2ccc(-c3ccc4oc(N)nc4c3)nn2c1-c1ccncc1 [compound 56],< 10,< 100,< 1,< 100,,,,,,,IC50 (p110β/p85α; read-out: PI3K β IC50): < 1000 nM
CN1CCC(n2cnc3ccc(-c4ccc5oc(N)nc5c4)cc3c2=O)CC1 [compound 36],< 10,,< 10,< 100,,,,,,,IC50 (p110δ/p85α; read-out: PI3K δ IC50): < 10000 nM
CN1CCN(C2CN(c3cnc4ccc(-c5ccc6oc(N)nc6c5)cc4n3)C2)CC1 [compound 274],,,,,< 10000,< 1,< 10000,< 10000,< 10,< 100,
CC1(C)CN(C2CN(c3cnc4ccc(-c5ccc6oc(N)nc6c5)cc4n3)C2)CCN1 [compound 388],,,,,< 1000,,< 1000,< 1000,< 0.1,< 100,
CN(C)[C@@H]1CCN(c2cnc3ccc(-c4ccc5oc(N)nc5c4)cc3n2)C1 [compound 378],,,,,< 10000,,< 10000,< 100,< 1,< 100,
Nc1nc2cc(-c3ccc4nc(N)sc4c3)ccc2o1 [compound 232],,,,,< 10000,,< 100,< 1000,< 10,< 1000,
Nc1nc2cc(-c3ccn4ncc(-c5ccncc5)c4n3)ccc2o1 [compound 62],,< 100,< 0.1,< 100,,,,,,,IC50 (p110δ/p85α; read-out: PI3K δ IC50): < 100 nM; IC50 (p110β/p85α; read-out: PI3K β IC50): < 100 nM
Cc1nccn1C1CN(c2cnc3ccc(-c4ccc5oc(N)nc5c4)cc3n2)C1 [compound 354],,,,,< 10000,< 1,< 10000,< 10000,< 10,< 100,
Nc1nc2cc(-c3ccc4ncc(N5CCOCC5)nc4c3)ccc2o1 [compound 64],< 10,< 100,< 10,< 100,,,,,,,IC50 (p110β/p85α; read-out: PI3K β IC50): < 1000 nM
CS(=O)(=O)Nc1cc(-c2ccc3ncc(C(=O)N4CCOCC4)n3c2)cnc1Cl [compound 418],,,,,,,,,,,IC50 (p110δ/p85α; read-out: PI3K δ In Vitro IC50): < 100 nM; IC50 (p110γ; read-out: PI3K γ In Vitro IC50): < 100 nM; IC50 (p110β/p85α; read-out: PI3K β In Vitro IC50): < 100 nM; IC50 (recombinant mTOR; read-out: MTORC In Vitro IC50): < 0.1 µM; IC50 (p110α/p85α; read-out: PI3K α In Vitro IC50): < 100 nM
COc1ncc(-c2ccc3ncc(C(=O)N4CCOCC4)n3c2)cc1NS(=O)(=O)c1ccc(F)cc1F [compound 417],,,,,,,,,,,IC50 (p110δ/p85α; read-out: PI3K δ In Vitro IC50): < 100 nM; IC50 (p110γ; read-out: PI3K γ In Vitro IC50): < 100 nM; IC50 (p110β/p85α; read-out: PI3K β In Vitro IC50): < 100 nM; IC50 (recombinant mTOR; read-out: MTORC In Vitro IC50): < 1 µM; IC50 (p110α/p85α; read-out: PI3K α In Vitro IC50): < 100 nM
Nc1nc2cc(-c3ccc4ncc(N5CC(N6CCOCC6)C5)nc4c3)ccc2o1 [compound 273],,,,,,< 1,< 10000,,< 1,< 100,
Cn1cc(-c2cnc3ccc(-c4ccc5oc(N)nc5c4)cn23)cn1 [compound 41],< 10,< 1000,< 10,< 100,,,,,,,IC50 (p110δ/p85α; read-out: PI3K δ IC50): < 1000 nM
Nc1nc2cc(-c3ccc4ncc(N5CC(N6CCN(C7CC7)CC6)C5)nc4c3)ccc2o1 [compound 313],,,,,< 10000,,< 10000,< 10000,< 10,< 100,
